Test results reported in PubChem BioAssay (NCI).
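Assay format: 96-well plates, 48-hour exposure. GI50 is the concentration that inhibits growth by half. The concentration for full growth arrest is given as TGI.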

How the values were obtained:
Test in all cases: growth of human tumour cells (NCI), 48 h; in the data active = GI50 below about 0.43 µM; inactive = the rest
786-0 renal = tested on: 786-0 renal
A498 renal = tested on: A498 renal
A549 NSCLC = tested on: A549 NSCLC
ACHN renal = tested on: ACHN renal
BT-549 breast = tested on: BT-549 breast
CAKI-1 renal = tested on: CAKI-1 renal
CCRF-CEM leukemia = tested on: CCRF-CEM leukemia
COLO 205 colon = tested on: COLO 205 colon
DU-145 prostate = tested on: DU-145 prostate
EKVX NSCLC = tested on: EKVX NSCLC
HCC-2998 colon = tested on: HCC-2998 colon
HCT-116 colon = tested on: HCT-116 colon
HCT-15 colon = tested on: HCT-15 colon
HL-60(TB) leukemia = tested on: HL-60(TB) leukemia
HOP-62 NSCLC = tested on: HOP-62 NSCLC
HOP-92 NSCLC = tested on: HOP-92 NSCLC
HS 578T breast = tested on: HS 578T breast
HT29 colon = tested on: HT29 colon
IGROV1 ovarian = tested on: IGROV1 ovarian
K-562 leukemia = tested on: K-562 leukemia
KM12 colon = tested on: KM12 colon
LOX IMVI melanoma = tested on: LOX IMVI melanoma
M14 melanoma = tested on: M14 melanoma
MALME-3M melanoma = tested on: MALME-3M melanoma
MCF7 breast = tested on: MCF7 breast
MDA-MB-231 breast = tested on: MDA-MB-231 breast
MDA-MB-435 = tested on: MDA-MB-435
MOLT-4 leukemia = tested on: MOLT-4 leukemia
NCI-H226 lung = tested on: NCI-H226 lung
NCI-H23 lung = tested on: NCI-H23 lung
NCI-H460 lung = tested on: NCI-H460 lung
NCI-H522 lung = tested on: NCI-H522 lung
NCI/ADR-RES ovarian = tested on: NCI/ADR-RES ovarian
OVCAR-3 ovarian = tested on: OVCAR-3 ovarian
OVCAR-4 ovarian = tested on: OVCAR-4 ovarian
OVCAR-5 ovarian = tested on: OVCAR-5 ovarian
OVCAR-8 ovarian = tested on: OVCAR-8 ovarian
PC-3 prostate = tested on: PC-3 prostate
RPMI-8226 leukemia = tested on: RPMI-8226 leukemia
RXF 393 renal = tested on: RXF 393 renal
SF-268 CNS = tested on: SF-268 CNS
SF-295 CNS = tested on: SF-295 CNS
SF-539 CNS = tested on: SF-539 CNS
SK-MEL-2 melanoma = tested on: SK-MEL-2 melanoma
SK-MEL-28 melanoma = tested on: SK-MEL-28 melanoma
SK-MEL-5 melanoma = tested on: SK-MEL-5 melanoma
SK-OV-3 ovarian = tested on: SK-OV-3 ovarian
SN12C renal = tested on: SN12C renal
SNB-19 CNS = tested on: SNB-19 CNS
SNB-75 CNS = tested on: SNB-75 CNS
SR leukemia = tested on: SR leukemia
SW-620 colon = tested on: SW-620 colon
T-47D breast = tested on: T-47D breast
TK-10 renal = tested on: TK-10 renal
U251 CNS = tested on: U251 CNS
UACC-257 melanoma = tested on: UACC-257 melanoma
UACC-62 melanoma = tested on: UACC-62 melanoma
UO-31 renal = tested on: UO-31 renal

Nc1ccc(S(=O)(=O)c2ccc(N)cc2)cc1
inactive: GI50 (786-0 renal) > 100 µM | GI50 (A498 renal) 64.8 µM | GI50 (A549 NSCLC) > 100 µM | GI50 (ACHN renal) > 100 µM | GI50 (BT-549 breast) > 100 µM | GI50 (CAKI-1 renal) > 100 µM | GI50 (CCRF-CEM leukemia) > 100 µM | GI50 (COLO 205 colon) > 100 µM | GI50 (DU-145 prostate) > 100 µM | GI50 (EKVX NSCLC) > 100 µM | GI50 (HCC-2998 colon) > 100 µM | GI50 (HCT-116 colon) > 100 µM | GI50 (HCT-15 colon) > 100 µM | GI50 (HL-60(TB) leukemia) > 100 µM | GI50 (HOP-62 NSCLC) > 100 µM | GI50 (HOP-92 NSCLC) > 100 µM | GI50 (HS 578T breast) 68.4 µM | GI50 (HT29 colon) > 100 µM | GI50 (IGROV1 ovarian) > 100 µM | GI50 (K-562 leukemia) > 100 µM | GI50 (KM12 colon) > 100 µM | GI50 (LOX IMVI melanoma) > 100 µM | GI50 (M14 melanoma) > 100 µM | GI50 (MALME-3M melanoma) > 100 µM | GI50 (MCF7 breast) > 100 µM | GI50 (MDA-MB-231 breast) > 100 µM | GI50 (MDA-MB-435) > 100 µM | GI50 (MOLT-4 leukemia) > 100 µM | GI50 (NCI-H226 lung) > 100 µM | GI50 (NCI-H23 lung) > 100 µM | GI50 (NCI-H460 lung) > 100 µM | GI50 (NCI-H522 lung) > 100 µM | GI50 (NCI/ADR-RES ovarian) > 100 µM | GI50 (OVCAR-3 ovarian) > 100 µM | GI50 (OVCAR-4 ovarian) > 100 µM | GI50 (OVCAR-5 ovarian) > 100 µM | GI50 (OVCAR-8 ovarian) > 100 µM | GI50 (PC-3 prostate) > 100 µM | GI50 (RPMI-8226 leukemia) > 100 µM | GI50 (RXF 393 renal) > 100 µM | GI50 (SF-268 CNS) > 100 µM | GI50 (SF-295 CNS) > 100 µM | GI50 (SF-539 CNS) > 100 µM | GI50 (SK-MEL-2 melanoma) > 100 µM | GI50 (SK-MEL-28 melanoma) > 100 µM | GI50 (SK-MEL-5 melanoma) > 100 µM | GI50 (SK-OV-3 ovarian) > 100 µM | GI50 (SN12C renal) > 100 µM | GI50 (SNB-19 CNS) > 100 µM | GI50 (SNB-75 CNS) > 100 µM | GI50 (SR leukemia) > 100 µM | GI50 (SW-620 colon) > 100 µM | GI50 (T-47D breast) > 100 µM | GI50 (TK-10 renal) > 100 µM | GI50 (U251 CNS) > 100 µM | GI50 (UACC-257 melanoma) > 100 µM | GI50 (UACC-62 melanoma) > 100 µM | GI50 (UO-31 renal) > 100 µM
> 100 µM: TGI (786-0 renal) | TGI (A498 renal) | TGI (A549 NSCLC) | TGI (ACHN renal) | TGI (BT-549 breast) | TGI (CAKI-1 renal) | TGI (CCRF-CEM leukemia) | TGI (COLO 205 colon) | TGI (DU-145 prostate) | TGI (EKVX NSCLC) | TGI (HCC-2998 colon) | TGI (HCT-116 colon) | TGI (HCT-15 colon) | TGI (HL-60(TB) leukemia) | TGI (HOP-62 NSCLC) | TGI (HOP-92 NSCLC) | TGI (HS 578T breast) | TGI (HT29 colon) | TGI (IGROV1 ovarian) | TGI (K-562 leukemia) | TGI (KM12 colon) | TGI (LOX IMVI melanoma) | TGI (M14 melanoma) | TGI (MALME-3M melanoma) | TGI (MCF7 breast) | TGI (MDA-MB-231 breast) | TGI (MDA-MB-435) | TGI (MOLT-4 leukemia) | TGI (NCI-H226 lung) | TGI (NCI-H23 lung) | TGI (NCI-H460 lung) | TGI (NCI-H522 lung) | TGI (NCI/ADR-RES ovarian) | TGI (OVCAR-3 ovarian) | TGI (OVCAR-4 ovarian) | TGI (OVCAR-5 ovarian) | TGI (OVCAR-8 ovarian) | TGI (PC-3 prostate) | TGI (RPMI-8226 leukemia) | TGI (RXF 393 renal) | TGI (SF-268 CNS) | TGI (SF-295 CNS) | TGI (SF-539 CNS) | TGI (SK-MEL-2 melanoma) | TGI (SK-MEL-28 melanoma) | TGI (SK-MEL-5 melanoma) | TGI (SK-OV-3 ovarian) | TGI (SN12C renal) | TGI (SNB-19 CNS) | TGI (SNB-75 CNS) | TGI (SR leukemia) | TGI (SW-620 colon) | TGI (T-47D breast) | TGI (TK-10 renal) | TGI (U251 CNS) | TGI (UACC-257 melanoma) | TGI (UACC-62 melanoma) | TGI (UO-31 renal)
